Reference: ChEMBL document CHEMBL1201862, “PubChem BioAssay data set” (2004)
Activity calls are given as the source filed them. For most assays here, no stated cut-off is given here; in the data, actives have a measured EC50 and inactives only a lower limit.

Assays:
INS1 = assay: INS-1E survival protection against cytokine death – cell-based, luminescence, retest, dose response (AID 449756); type: functional; conditions: Rattus norvegicus;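 further: cell death triggered by IL-1 beta plus TNF-alpha plus IFN-gamma mixture; protective hits raise ATP signal compared with cytokine alone wells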
[1] = DRD fibroblast viability loss – cell-based, non-viral oncogenic, luminescence, dose response (AID 1934); type: functional; conditions: Homo sapiens
BJ [2] = assay: cells; type: functional, cell-based; conditions: Homo sapiens
BJ [3] = assay: BJ-TERT fibroblast viability loss – cell-based, RAS-independent, luminescence, dose response (AID 1933); type: functional; conditions: Homo sapiens
BJ [4] = assay: BJ-TERT-LT-ST fibroblast viability loss – cell-based, RAS-independent, luminescence, dose response (AID 1935); type: functional; conditions: Homo sapiens;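 further: BJ fibroblasts immortalized with TERT plus LT and ST oncogenes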
[5] = molecular target: T1, Calpain-2 catalytic subunit (Sus scrofa, UniProt P43367); assay: m-calpain protease blockers, concentration series – biochemical, fluorogenic peptide substrate, dose response (AID 1420); type: functional
T1 sequence (P43367 whole entry): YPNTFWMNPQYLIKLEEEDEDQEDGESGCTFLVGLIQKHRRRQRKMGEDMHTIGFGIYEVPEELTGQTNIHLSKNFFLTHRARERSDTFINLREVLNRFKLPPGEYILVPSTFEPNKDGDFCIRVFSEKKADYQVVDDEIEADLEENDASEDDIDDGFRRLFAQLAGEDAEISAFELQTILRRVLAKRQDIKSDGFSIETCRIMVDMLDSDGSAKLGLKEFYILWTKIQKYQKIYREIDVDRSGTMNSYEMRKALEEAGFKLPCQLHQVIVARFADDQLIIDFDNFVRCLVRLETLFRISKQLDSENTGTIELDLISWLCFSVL

[6] = molecular target: T2, Zinc finger protein mex-5 (Caenorhabditis elegans, UniProt Q9XUB2); assay: potency of MEX-5 RNA-binding blockers – biochemical, C. elegans, fluorescence polarization, dose response (AID 1960)
T2 sequence (Q9XUB2 whole entry): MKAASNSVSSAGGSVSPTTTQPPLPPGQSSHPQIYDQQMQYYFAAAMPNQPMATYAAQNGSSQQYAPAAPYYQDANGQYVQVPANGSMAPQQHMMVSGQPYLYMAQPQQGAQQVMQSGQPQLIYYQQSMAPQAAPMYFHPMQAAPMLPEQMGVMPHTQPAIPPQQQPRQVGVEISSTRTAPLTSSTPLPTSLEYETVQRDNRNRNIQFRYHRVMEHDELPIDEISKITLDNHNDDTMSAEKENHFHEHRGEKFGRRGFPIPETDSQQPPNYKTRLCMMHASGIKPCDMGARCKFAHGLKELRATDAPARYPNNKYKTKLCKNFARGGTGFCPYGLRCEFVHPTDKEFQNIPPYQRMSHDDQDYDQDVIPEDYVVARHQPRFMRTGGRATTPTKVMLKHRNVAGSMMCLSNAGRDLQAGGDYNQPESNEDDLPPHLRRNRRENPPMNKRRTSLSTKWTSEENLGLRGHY

[7] = molecular target: T3, RNA-binding protein pos-1 (Caenorhabditis elegans, UniProt G5EF15); assay: disruptors of C. elegans POS-1 RNA interaction – biochemical, fluorescence polarization, dose response (AID 1964);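 further: purified POS-1 fused to maltose binding protein made in E. coli; potency of compounds blocking POS-1 binding to fluorescent RNA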
T3 sequence (G5EF15 whole entry): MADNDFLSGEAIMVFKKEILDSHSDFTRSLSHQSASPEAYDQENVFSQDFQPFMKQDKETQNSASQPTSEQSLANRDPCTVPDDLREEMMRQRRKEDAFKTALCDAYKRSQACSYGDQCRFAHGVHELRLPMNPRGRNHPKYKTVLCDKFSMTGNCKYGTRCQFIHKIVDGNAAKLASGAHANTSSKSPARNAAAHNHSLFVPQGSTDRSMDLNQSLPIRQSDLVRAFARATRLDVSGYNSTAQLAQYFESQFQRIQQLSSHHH

Cytochrome P450 2C9 = Cytochrome P450 2C9 (Homo sapiens, UniProt P11712)
Cytochrome P450 2D6 = Cytochrome P450 2D6 (Homo sapiens, UniProt P10635);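 further: CYP2D6 member of a cytochrome P450 panel assay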
cells [8] = type: functional, cell-based
cells [9] = type: functional, cell-based; remark: listed apart in the source
[10] = molecular target: FAD-linked sulfhydryl oxidase ALR (Homo sapiens, UniProt P55789); assay: ALR-catalysed DTT oxidation blockers – biochemical, H2O2 detection, luminescence, cherry-pick, dose response (AID 493248)
[11] = molecular target: Luciferin 4-monooxygenase (Photinus pyralis, UniProt P08659); assay: inhibition of purified Photinus pyralis luciferase – biochemical, luminescence, dose response (AID 1891)
[12] = Luminescence Cell-Based Dose Confirmation HTS to Identify Inhibitors of Platelet Dense Granule Release. [Related pubchem assays: 1663 (Primary HTS), 1678 (Summary of Project)]; type: functional
[13] = molecular target: T4, Ubiquitin-conjugating enzyme E2 N (Homo sapiens, UniProt P61088); type: functional;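 further: Dose-response confirmation in a TR-FRET assay detecting UBC13-driven polyubiquitin chain formation, inhibition measured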
T4 sequence (P61088 whole entry): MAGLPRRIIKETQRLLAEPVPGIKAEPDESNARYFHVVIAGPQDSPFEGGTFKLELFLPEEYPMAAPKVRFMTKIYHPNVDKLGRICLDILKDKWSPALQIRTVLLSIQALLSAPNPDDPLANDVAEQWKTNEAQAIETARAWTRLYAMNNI

cells [14] = type: functional
[15] = Trypanosoma cruzi growth suppression in host cells – NIH3T3 host cells, beta-gal luminescence, confirmation (AID 2044); type: functional, cell-based;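 further: intracellular parasites grown in NIH/3T3 mouse fibroblasts as host cells; luminescent beta-galactosidase reporter signal from transgenic T. cruzi replicating inside host cells; inhibitors lower the luminescence signal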
[16] = NIH3T3 cell viability loss – ATP luminescence, mouse fibroblasts, counter-screen, dose response (AID 2010); type: functional, cell-based;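 further: cells exposed to compound for about 90 hours before reading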
[17] = viability of uninfected HEp-2 cells – cell-based, HTS, cytotoxicity control for RSV inhibitor project, dose response (AID 2410); type: functional; conditions: human respiratory syncytial virus
[18] = Luminescence Cell-Based Dose Retest to Confirm Inhibitors of Cancer Stem Cells. [Related pubchem assays (depositor defined):AID2717, AID2721]; type: functional; conditions: Homo sapiens
[19] = microbe, parasite or virus in culture; type: functional; conditions: Mycobacterium tuberculosis

Sequence of FAD-linked sulfhydryl oxidase ALR (P55789 whole entry): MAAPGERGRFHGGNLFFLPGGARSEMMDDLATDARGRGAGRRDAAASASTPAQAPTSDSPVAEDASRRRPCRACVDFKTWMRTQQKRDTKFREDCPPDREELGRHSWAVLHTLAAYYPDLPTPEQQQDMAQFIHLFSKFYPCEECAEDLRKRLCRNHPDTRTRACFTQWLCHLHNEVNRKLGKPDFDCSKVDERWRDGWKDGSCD
Sequence of Luciferin 4-monooxygenase (P08659 whole entry): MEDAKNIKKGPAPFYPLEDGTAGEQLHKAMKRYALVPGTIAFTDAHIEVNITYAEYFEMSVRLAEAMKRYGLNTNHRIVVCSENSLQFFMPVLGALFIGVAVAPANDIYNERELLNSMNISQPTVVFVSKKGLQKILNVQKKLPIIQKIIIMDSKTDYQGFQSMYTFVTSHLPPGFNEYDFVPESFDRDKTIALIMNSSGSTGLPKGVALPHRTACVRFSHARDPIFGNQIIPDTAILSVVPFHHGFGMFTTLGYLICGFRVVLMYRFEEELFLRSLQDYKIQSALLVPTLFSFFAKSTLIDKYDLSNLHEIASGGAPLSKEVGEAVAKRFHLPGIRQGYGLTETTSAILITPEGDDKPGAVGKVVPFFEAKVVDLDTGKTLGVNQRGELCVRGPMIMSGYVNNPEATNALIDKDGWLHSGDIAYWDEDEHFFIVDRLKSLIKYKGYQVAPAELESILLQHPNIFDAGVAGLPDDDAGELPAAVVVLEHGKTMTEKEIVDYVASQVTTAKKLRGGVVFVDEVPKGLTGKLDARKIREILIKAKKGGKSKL
Sequence of Cytochrome P450 2D6 (P10635 whole entry): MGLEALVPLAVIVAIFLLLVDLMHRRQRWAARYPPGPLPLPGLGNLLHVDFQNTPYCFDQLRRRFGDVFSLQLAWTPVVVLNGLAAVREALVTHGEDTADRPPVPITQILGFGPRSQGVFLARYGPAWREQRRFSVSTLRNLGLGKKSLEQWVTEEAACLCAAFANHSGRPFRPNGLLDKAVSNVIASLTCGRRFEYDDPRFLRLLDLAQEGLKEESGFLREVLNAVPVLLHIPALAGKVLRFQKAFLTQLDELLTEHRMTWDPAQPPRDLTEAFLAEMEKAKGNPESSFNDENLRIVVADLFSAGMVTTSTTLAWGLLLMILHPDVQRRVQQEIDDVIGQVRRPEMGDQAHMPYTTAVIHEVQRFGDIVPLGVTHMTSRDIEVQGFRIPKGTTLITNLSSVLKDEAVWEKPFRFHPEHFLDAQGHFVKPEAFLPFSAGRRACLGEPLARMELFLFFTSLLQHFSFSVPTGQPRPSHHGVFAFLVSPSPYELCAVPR
Sequence of Cytochrome P450 2C9 (P11712 whole entry): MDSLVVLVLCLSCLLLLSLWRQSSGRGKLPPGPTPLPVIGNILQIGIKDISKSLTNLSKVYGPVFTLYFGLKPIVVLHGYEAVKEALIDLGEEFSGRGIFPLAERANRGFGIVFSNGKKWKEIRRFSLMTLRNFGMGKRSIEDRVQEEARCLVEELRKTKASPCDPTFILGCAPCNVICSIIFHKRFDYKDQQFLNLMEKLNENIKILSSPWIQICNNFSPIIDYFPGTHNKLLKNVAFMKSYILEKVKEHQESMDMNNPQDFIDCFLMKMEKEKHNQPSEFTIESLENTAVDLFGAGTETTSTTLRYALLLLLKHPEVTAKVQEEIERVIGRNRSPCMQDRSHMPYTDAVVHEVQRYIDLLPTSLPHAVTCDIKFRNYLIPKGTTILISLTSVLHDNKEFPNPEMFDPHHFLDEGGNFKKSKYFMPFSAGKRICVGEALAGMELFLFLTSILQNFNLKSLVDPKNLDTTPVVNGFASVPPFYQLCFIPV

SMILES: Cc1ccc(C)c(NS(=O)(=O)c2ccc(OCC(=O)NCc3cccnc3)cc2)c1
- AC50 (INS1): 8.78 µM (active)
- EC50 [1]: > 150 µM (not active)
- EC50 (BJ [2]): 18.1 µM (active)
- EC50 (BJ [3]): > 150 µM (not active)
- EC50 (BJ [4]): > 150 µM (inconclusive)

SMILES: CCOC(=O)c1c(N)sc(C(=O)N2CCCCCC2)c1C
- IC50 [5]: > 50 µM (not active)

SMILES: COC(=O)c1c(NC(=O)CC2Nc3ccccc3NC2=O)sc(C)c1C (configuration not stated)
- EC50 [6]: > 300 µM (inconclusive)
- EC50 [7]: > 300 µM (not active)
- AC50 (Cytochrome P450 2C9): 17.8 µM (inconclusive)
- AC50 (Cytochrome P450 2D6): 25.1 µM (inconclusive)

SMILES: CC(C)c1cc(NC(=O)CCl)on1
- EC50 [1]: > 150 µM (inconclusive)
- EC50 (BJ [2]): > 150 µM (not active)
- EC50 (BJ [3]): > 150 µM (not active)
- EC50 (BJ [4]): > 150 µM (not active)

SMILES: COc1ccc(C(=O)NCCc2nc3cc([N+](=O)[O-])ccc3n2C)cc1
- EC50 (cells [8]): > 350 µM (not active)
- EC50 (cells [9]): > 350 µM (not active)

SMILES: O=C(c1ccc(C[S+]([O-])Cc2ccc(Cl)cc2)o1)N1CCN(c2ccccc2)CC1 (configuration not stated)
- AC50 [10]: > 100 µM (inactive)

SMILES: Cc1ccc(OCCNC(=O)CCc2nc(O)c3c4c(sc3n2)CCCC4)cc1
- EC50 (cells [8]): > 350 µM (not active)
- EC50 (cells [9]): > 350 µM (not active)

SMILES: COc1ccc(N2CCN(C(=O)c3ccc(C)cc3Cl)CC2)cc1
- AC50 [10]: 3.97 µM (active)

SMILES: Cc1ccc(/C=C/C(=O)O)cc1S(=O)(=O)N1CCCCC1
- EC50 [11]: > 112 µM (not active)
- EC50 [6]: > 300 µM (not active)
- EC50 [7]: > 300 µM (not active)
- EC50 [12]: > 112 µM (not active)

SMILES: COc1cc(NC(=O)CN2c3ccccc3CC2C)cc(OC)c1OC (configuration not stated)
- AC50 [10]: 0.394 µM (active)

SMILES: N#CC1=C(N)Oc2cc(N)ccc2C1c1ccc(F)cc1 (configuration not stated)
- AC50 [10]: 2.78 µM (active)

SMILES: Cc1ccc2c(c1)N(C(=O)CCC(=O)NCCCN1CCC(Cc3ccccc3)CC1)CCO2
- AC50 (INS1): 20.4 µM (active)
- IC50 [13]: > 20 µM (inactive)

SMILES: CCCC1=Nc2cc(C(=O)N3CCC(C(=O)OCC)CC3)ccc2Sc2ccccc21
- EC50 [1]: 126 µM (active)
- EC50 (BJ [2]): > 150 µM (not active)
- EC50 (BJ [3]): > 150 µM (not active)
- EC50 (BJ [4]): > 150 µM (not active)

SMILES: COc1ccc(NC(=O)c2cccs2)cn1
- EC50 (cells [8]): > 350 µM (not active)
- EC50 (cells [9]): 48.3 µM (active)

SMILES: O=C(CCN1C(=O)S/C(=C\c2ccc(F)cc2)C1=O)Nc1ccc(C(=O)O)c(O)c1
- EC50 (cells [8]): > 350 µM (not active)
- IC50 (cells [14]): 7.61 µM (active)
- EC50 (cells [9]): 3.94 µM (active)

SMILES: CC1=NN2C(=N)/C(=C\c3cc(C)n(Cc4ccccc4)c3C)C(=O)N=C2S1
- EC50 (cells [8]): > 350 µM (not active)
- AC50 [10]: 0.405 µM (active)
- EC50 (cells [9]): > 350 µM (not active)

SMILES: CCCCOC(=O)c1ccc(N=Nc2c(O)nc(O)c(C#N)c2C)cc1
- EC50 [11]: > 112 µM (not active)
- EC50 [6]: > 300 µM (inconclusive)
- EC50 [7]: > 300 µM (not active)
- EC50 [12]: > 112 µM (not active)

SMILES: COc1cc(OC)c(C2C(C#N)=C(N)OC3=C2C(=O)CC(C)C3)cc1OC (configuration not stated)
- EC50 [6]: > 300 µM (not active)
- EC50 [7]: > 300 µM (not active)

SMILES: CCN(CC)C(=O)CSc1nnc(-c2cc(OC)cc(OC)c2)o1
- IC50 [5]: > 50 µM (not active)

SMILES: O=C(O)c1ccccc1-n1c2ccccc2c2ccccc21
- EC50 [6]: > 300 µM (not active)
- EC50 [7]: > 300 µM (not active)

SMILES: Cc1ccc(C(=O)O)cc1-n1c(C)cc(C=O)c1C
- EC50 [6]: > 300 µM (not active)
- EC50 [7]: > 300 µM (not active)

SMILES: COc1ccccc1NC(=O)c1cc(S(=O)(=O)N2CCC3(CC2)OCCO3)ccc1F
- IC50 [13]: > 20 µM (inactive)

SMILES: CN(C)c1ccnc(Oc2ccc(C(C)(C)C)cc2)c1C#N
- IC50 [5]: 4.48 µM (not active)

SMILES: CCCCc1ccc(NC(=O)C2CCN(S(C)(=O)=O)CC2)cc1
- EC50 (cells [8]): > 350 µM (not active)
- EC50 (cells [9]): > 350 µM (not active)

SMILES: CC(=O)c1ccc(-c2ccc(C(=O)N3CCN(c4ccc(F)cc4)CC3)o2)cc1
- IC50 [5]: 6.42 µM (not active)

SMILES: Cc1[nH]c2ccccc2c1CCN(Cc1cccnc1)C(S)=Nc1cccc(F)c1
- EC50 [15]: 0.698 µM (active)
- IC50 [5]: 44.4 µM (not active)
- EC50 [16]: > 60 µM (not active)

SMILES: Cc1ccc(C(C)C)c(OCCN=C(S)Nc2cccc3ccccc23)c1
- IC50 [5]: 6.63 µM (not active)

SMILES: O=C(NCCCn1ccnc1)C1CCN(S(=O)(=O)c2cc([N+](=O)[O-])ccc2Cl)CC1
- IC50 [13]: > 20 µM (inactive)

SMILES: CCOC(=O)CSc1nc(C(C)(C)C)cc(C(F)(F)F)c1C#N
- IC50 [13]: > 20 µM (inactive)

SMILES: COc1ccc(-c2c(-c3ccc(C#N)cc3)oc(=O)c3cc(OC)c(OC)cc23)cc1
- IC50 [13]: > 20 µM (inactive)

SMILES: C/C(=N\Nc1ccc([N+](=O)[O-])cc1)c1cccc(N)c1
- AC50 [10]: 0.14 µM (active)
- AC50 (Cytochrome P450 2D6): 17.8 µM (inconclusive)
- CC50 [17]: 22 µM (active)

SMILES: COc1cccc(/C=N/NC(=O)c2ccc(-c3ccccc3)cc2)c1O
- EC50 (cells [8]): 166 µM (active)
- AC50 (INS1): 3.83 µM (active)
- AC50 [18]: 3.26 µM (active)
- EC50 (cells [9]): 56.6 µM (active)

SMILES: CCOCCCn1/c(=N/C(=O)c2cccs2)c(C#N)cc2c(=O)n3cccc(C)c3nc21
- EC50 [6]: > 150 µM (not active)
- EC50 [7]: > 300 µM (not active)

SMILES: CC(=O)O/N=C1\C(=O)N(Cc2ccc(C)cc2)c2ccccc21
- IC50 [5]: 15.5 µM (not active)

SMILES: COc1ccc(/C=N/NC(=O)CCc2c(C)n[nH]c2C)cc1O
- AC50 [10]: 3.71 µM (active)

SMILES: CC(C)(O)[C@H]1O[C@H]2CC[C@@]3(C)[C@@](O)(CC[C@H]4Cc5c([nH]c6ccccc56)[C@@]43C)C2=CC1=O [PAXILLINE]
- CC50 [19]: > 40 µM (active)
- EC50 [6]: 12.3 µM (active)
- EC50 [7]: 16.7 µM (active)
